Experiment [1] addresses T1, human muscarinic acetylcholine M3 receptor (Homo sapiens, UniProt P20309).
T1 construct: expressed in transfected cells; host or cells: CHO-K1 (Chinese Hamster Ovary) cell membranes
Kind of experiment: Muscarinic 3 receptor binding assay ([3H]NMS competition, SPA), single concentration 1 μM. The note with it: 1 μM compound; % inhibition specific [3H]-NMS binding. The protocol: The following experimental procedure was used to determine the M3% inhibition at 1 μM of the compounds of Examples 99-175
Muscarinic 3 Receptor Binding Assay
The activity (% inhibition specific binding) of compounds on the M3 receptor is determined by competition binding of [^3H]N-methyl scopolamine (NMS) to CHO-K1 (Chinese Hamster Ovary) cell membranes expressing the human muscarinic acetylcholine M3 receptor (M3-ACh) in a scintillation proximity assay (SPA) format. SPA beads are precoated with membranes and then incubated at 2 mg of beads per well with 1 μM compound of the invention, [^3H]NMS at 0.1 nM, quarter Kd (experimentally determined dissociation constant) and assay buffer (20 mM HEPES pH 7.4 containing 5 mM MgCl2 and 0.1% (w/v) bovine serum albumin). The assay is conducted in a final volume of 200 μL, in the presence of 1% (v/v) dimethyl sulphoxide (DMSO). Total binding of [^3H]NMS is determined in the absence of competing compound and non-specific binding of [^3H]NMS is determined in the presence of 1 μM atropine. The plates are incubated for 16 hours at room temperature and then read on Wallac Microbeta™ using a normalised ^3H protocol. The compound activity at 1 μM, defined as % inhibition specific [^3H]-NMS binding, is determined.

For experiment [2], the target named is T2, Adrenergic β2 (Homo sapiens, UniProt P07550).
T2 construct: Adherent H292 cells are removed from tissue culture flasks by treatment with Accutase™ cell detachment solution; endogenous in cells; host or cells: H292 cells
Kind of experiment: Adrenergic β2 mediated cAMP production in H292 cells, single concentration 1 μM. It counts as cell-based. To be noted: NCI-H292, 1 μM compound, cAMP as percentage of the maximum response generated by 1E-07M formoterol, read-out: β2 % effect @1 uM. The procedure:
The following experimental procedure was used to measure the beta-2% effect at 1 μM for the compounds of Examples 99-175. Adrenergic p2 Mediated cAMP Production Cell Preparation
H292 cells are grown in 225 cm2 flasks incubator at 37° C., 5% CO2 in RPMI medium containing 10% (v/v) FBS (foetal bovine serum) and 2 mM L-glutamine.
Compounds are prepared by an initial first dilution into DMSO to give 1 mM stock concentration. This is followed by a 1 in 10 dilution of the stock concentration (10 μl stock compound +90 μl DMSO) to give 0.1 mM compound. A compound addition plate is prepared by making a further 1 in 25 dilution in assay buffer (HBSS solution containing 10 mM HEPES pH7.4 and 5 mM glucose) containing 4% dimethylsulfoxide. The final compound concentration in assay is 1 μM.
Adherent H292 cells are removed from tissue culture flasks by treatment with Accutase™ cell detachment solution for 15 minutes. Flasks are incubated for 15 minutes in a humidified incubator at 37° C., 5% CO2. Detached cells are re-suspended in RPMI media (containing 10% (v/v) FBS and 2 mM L-glutamine) at 0.1×10^6 cells per mL. 10000 cells in 100 μL are added to each well of a tissue-culture-treated 96-well plate and the cells incubated overnight in a humidified incubator at 37° C., 5% CO2. The culture media is removed and cells are washed twice with 100 μL assay buffer and replaced with 50 μL assay buffer (HBSS solution containing 10 mM HEPES pH7.4 and 5 mM glucose). Cells are rested at room temperature for 20 minutes after which time 25 μL of rolipram (1.2 mM made up in assay buffer) is added. Cells are incubated with rolipram for 10 minutes after which time 25 μl test compounds are added and the cells are incubated for 60 minutes at room temperature. The final rolipram concentration in the assay is 300 μM and final vehicle concentration is 1% (v/v) dimethylsulphoxide. The reaction is stopped by removing supernatants, washing once with 100 μL assay buffer and replacing with 50 μL lysis buffer. The cell monolayer is frozen at −80° C. for 30 minutes (or overnight).
AlphaScreen™ cAMP Detection
The concentration of cAMP (cyclic adenosine monophosphate) in the cell lysate is determined using AlphaScreen™ methodology. The frozen cell plate is thawed for 20 minutes on a plate shaker then 10 μL of the cell lysate is transferred to a 96-well white plate. 40 μl of mixed AlphaScreen™ detection beads (containing equal volumes of donor beads (pre-incubated with biotinylated cAMP in the dark for 30 minutes) and acceptor beads is added to each well and the plate incubated at room temperature for 3 hours in the dark. The AlphaScreen™ signal is measured using an EnVision spectrophotometer (Perkin-Elmer Inc.) with the recommended manufacturer's settings. Concentration of cAMP produced per well were calculated with reference to the cAMP standard curve determined in the same experiment and expressed as a percentage of the maximum response generated by 1E-07M formoterol.

The structures appear in SMILES notation.

One may read the inhibition as the change of the read-out against control, counted positive when it falls.

T1 sequence (P20309 whole entry): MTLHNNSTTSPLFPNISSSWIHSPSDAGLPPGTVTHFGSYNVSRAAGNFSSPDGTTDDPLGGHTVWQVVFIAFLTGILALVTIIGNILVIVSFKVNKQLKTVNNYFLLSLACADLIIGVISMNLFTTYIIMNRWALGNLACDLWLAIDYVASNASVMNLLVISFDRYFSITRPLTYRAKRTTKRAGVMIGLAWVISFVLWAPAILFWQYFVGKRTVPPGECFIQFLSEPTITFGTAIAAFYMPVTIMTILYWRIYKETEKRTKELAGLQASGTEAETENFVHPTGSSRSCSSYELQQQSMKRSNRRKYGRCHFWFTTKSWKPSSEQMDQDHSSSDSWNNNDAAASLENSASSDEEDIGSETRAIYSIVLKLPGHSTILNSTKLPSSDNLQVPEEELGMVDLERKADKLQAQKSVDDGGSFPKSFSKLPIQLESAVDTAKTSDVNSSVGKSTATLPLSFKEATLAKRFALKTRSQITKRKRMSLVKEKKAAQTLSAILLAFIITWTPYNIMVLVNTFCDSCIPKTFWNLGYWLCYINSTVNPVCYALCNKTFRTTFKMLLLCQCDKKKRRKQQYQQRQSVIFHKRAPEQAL
T2 sequence (P07550 whole entry): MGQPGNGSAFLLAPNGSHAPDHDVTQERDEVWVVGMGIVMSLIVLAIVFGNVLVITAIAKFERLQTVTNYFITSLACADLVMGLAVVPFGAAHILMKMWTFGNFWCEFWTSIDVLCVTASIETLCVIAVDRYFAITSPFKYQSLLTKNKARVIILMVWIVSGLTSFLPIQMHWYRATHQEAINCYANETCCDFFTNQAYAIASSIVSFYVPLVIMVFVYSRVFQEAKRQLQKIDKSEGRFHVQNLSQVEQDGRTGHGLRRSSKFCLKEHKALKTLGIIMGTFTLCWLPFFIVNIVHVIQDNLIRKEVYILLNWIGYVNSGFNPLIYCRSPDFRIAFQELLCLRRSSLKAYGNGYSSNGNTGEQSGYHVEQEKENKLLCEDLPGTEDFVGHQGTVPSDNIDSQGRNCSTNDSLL

On to `O=C1COc2c(CCNCCN(C(=O)CCOCCc3cccc(CN4CCC5(CC4)CN(C(=O)c4cnc6ccccc6c4)CCO5)c3)C3CCCCC3)ccc(O)c2N1` [Example 99, N-Cyclohexyl-N-(2-(2-(5-hydroxy-3-oxo-3,4-dihydro-2H-benzo[b][1,4]oxazin-8-yl)ethylamino)ethyl)-3-(3-((4-(quinoline-3-carbonyl)-1-oxa-4,9-diazaspiro[5.5]undecan-9-yl)methyl)phenethoxy)propanamide], for which the inhibition at 1 µM in experiment [1] came out at 99%. Further, the percent of formoterol maximum response at 1 µM in experiment [2] was 112%.

`O=C1COc2c(CCNCCN(C(=O)CCOCCc3cccc(CN4CCC5(CC4)CN(C(=O)c4cccc6cccnc46)CCO5)c3)C3CCCCC3)ccc(O)c2N1` [Example 100, N-Cyclohexyl-N-(2-(2-(5-hydroxy-3-oxo-3,4-dihydro-2H-benzo[b][1,4]oxazin-8-yl)ethylamino)ethyl)-3-(3-((4-(quinoline-8-carbonyl)-1-oxa-4,9-diazaspiro[5.5]undecan-9-yl)methyl)phenethoxy)propanamide]: in experiment [1], the inhibition at 1 µM came out at 96%. Moreover, in experiment [2], the percent of formoterol maximum response at 1 µM worked out at 95%.

With `CCOc1ncccc1C(=O)N1CCOC2(CCN(Cc3cccc(CCOCCC(=O)N(CCNCCc4ccc(O)c5c4OCC(=O)N5)C4CCCCC4)c3)CC2)C1` [Example 101, N-Cyclohexyl-3-(3-((4-(2-ethoxynicotinoyl)-1-oxa-4,9-diazaspiro[5.5]undecan-9-yl)methyl)phenethoxy)-N-(2-(2-(5-hydroxy-3-oxo-3,4-dihydro-2H-benzo[b][1,4]oxazin-8-yl)ethylamino)ethyl)propanamide], in experiment [1], the inhibition at 1 µM stood at 95%. Moreover, in experiment [2], the percent of formoterol maximum response at 1 µM was 105%.

Consider `O=C1COc2c(CCNCCN(C(=O)CCOCCc3cccc(CN4CCC5(CC4)CN(C(=O)c4cncc(Br)c4)CCO5)c3)C3CCCCC3)ccc(O)c2N1` [Example 102, 3-(3-((4-(5-Bromonicotinoyl)-1-oxa-4,9-diazaspiro[5.5]undecan-9-yl)methyl)phenethoxy)-N-cyclohexyl-N-(2-(2-(5-hydroxy-3-oxo-3,4-dihydro-2H-benzo[b][1,4]oxazin-8-yl)ethylamino)ethyl)propanamide], for which the inhibition at 1 µM in experiment [1] amounted to 99%. Also, the percent of formoterol maximum response at 1 µM in experiment [2] is 108%.

With `O=C1COc2c(CCNCCN(C(=O)CCOCCc3cccc(CN4CCC5(CC4)CN(C(=O)CCc4nc6ccccc6[nH]4)CCO5)c3)C3CCCCC3)ccc(O)c2N1` [Example 103, 3-(3-((4-(3-(1H-Benzo[d]imidazol-2-yl)propanoyl)-1-oxa-4,9-diazaspiro[5.5]undecan-9-yl)methyl)phenethoxy)-N-cyclohexyl-N-(2-(2-(5-hydroxy-3-oxo-3,4-dihydro-2H-benzo[b][1,4]oxazin-8-yl)ethylamino)ethyl)propanamide], the inhibition at 1 µM in experiment [1] was determined as 90%. The percent of formoterol maximum response at 1 µM in experiment [2] is 109%.

With `O=C1COc2c(CCNCCN(C(=O)CCOCCc3cccc(CN4CCC5(CC4)CN(C(=O)C(CO)c4ccccc4)CCO5)c3)C3CCCCC3)ccc(O)c2N1` (stereo not drawn) [Example 104, N-Cyclohexyl-3-(3-((4-(3-hydroxy-2-phenylpropanoyl)-1-oxa-4,9-diazaspiro[5.5]undecan-9-yl)methyl)phenethoxy)-N-(2-(2-(5-hydroxy-3-oxo-3,4-dihydro-2H-benzo[b][1,4]oxazin-8-yl)ethylamino)ethyl)propanamide], the inhibition at 1 µM in experiment [1] is 101%. Further, in experiment [2], the percent of formoterol maximum response at 1 µM worked out at 100%.

In the case of `O=C1COc2c(CCNCCN(C(=O)CCOCCc3cccc(CN4CCC5(CC4)CN(C(=O)C4CC=CCC4)CCO5)c3)C3CCCCC3)ccc(O)c2N1` (stereo not drawn) [Example 105, 3-(3-((4-(Cyclohex-3-enecarbonyl)-1-oxa-4,9-diazaspiro[5.5]undecan-9-yl)methyl)phenethoxy)-N-cyclohexyl-N-(2-(2-(5-hydroxy-3-oxo-3,4-dihydro-2H-benzo[b][1,4]oxazin-8-yl)ethylamino)ethyl)propanamide], the inhibition at 1 µM in experiment [1] is 99%. Further, the percent of formoterol maximum response at 1 µM in experiment [2] amounted to 109%.

With `O=C1COc2c(CCNCCN(C(=O)CCOCCc3cccc(CN4CCC5(CC4)CN(C(=O)c4cc6cc(F)ccc6[nH]4)CCO5)c3)C3CCCCC3)ccc(O)c2N1` [Example 107, N-Cyclohexyl-3-(3-((4-(5-fluoro-1H-indole-2-carbonyl)-1-oxa-4,9-diazaspiro[5.5]undecan-9-yl)methyl)phenethoxy)-N-(2-(2-(5-hydroxy-3-oxo-3,4-dihydro-2H-benzo[b][1,4]oxazin-8-yl)ethylamino)ethyl)propanamide], the inhibition at 1 µM in experiment [1] turned out to be 100%. In addition, the percent of formoterol maximum response at 1 µM in experiment [2] is 101%.

`Cc1cc2ncc(C(=O)N3CCOC4(CCN(Cc5cccc(CCOCCC(=O)N(CCNCCc6ccc(O)c7c6OCC(=O)N7)C6CCCCC6)c5)CC4)C3)c(C)n2n1` [Example 108, N-Cyclohexyl-3-(3-((4-(2,7-dimethylpyrazolo[1,5-a]pyrimidine-6-carbonyl)-1-oxa-4,9-diazaspiro[5.5]undecan-9-yl)methyl)phenethoxy)-N-(2-(2-(5-hydroxy-3-oxo-3,4-dihydro-2H-benzo[b][1,4]oxazin-8-yl)ethylamino)ethyl)propanamide]: the inhibition at 1 µM in experiment [1] stood at 80%. In addition, in experiment [2], the percent of formoterol maximum response at 1 µM was determined as 98%.

Regarding `O=C1COc2c(CCNCCN(C(=O)CCOCCc3cccc(CN4CCC5(CC4)CN(C(=O)Cc4ccsc4)CCO5)c3)C3CCCCC3)ccc(O)c2N1` [Example 109, N-Cyclohexyl-N-(2-(2-(5-hydroxy-3-oxo-3,4-dihydro-2H-benzo[b][1,4]oxazin-8-yl)ethylamino)ethyl)-3-(3-((4-(2-(thiophen-3-yl)acetyl)-1-oxa-4,9-diazaspiro[5.5]undecan-9-yl)methyl)phenethoxy)propanamide], the inhibition at 1 µM in experiment [1] was determined as 99%. For the same compound, in experiment [2], the percent of formoterol maximum response at 1 µM came out at 98%.

Regarding `O=C1COc2c(CCNCCN(C(=O)CCOCCc3cccc(CN4CCC5(CC4)CN(C(=O)c4cccc(F)c4F)CCO5)c3)C3CCCCC3)ccc(O)c2N1` [Example 110, N-Cyclohexyl-3-(3-((4-(2,3-difluorobenzoyl)-1-oxa-4,9-diazaspiro[5.5]undecan-9-yl)methyl)phenethoxy)-N-(2-(2-(5-hydroxy-3-oxo-3,4-dihydro-2H-benzo[b][1,4]oxazin-8-yl)ethylamino)ethyl)propanamide], the inhibition at 1 µM in experiment [1] is 100%. For the same compound, the percent of formoterol maximum response at 1 µM in experiment [2] was 99%.

Consider `CCOc1ccccc1C(=O)N1CCOC2(CCN(Cc3cccc(CCOCCC(=O)N(CCNCCc4ccc(O)c5c4OCC(=O)N5)C4CCCCC4)c3)CC2)C1` [Example 111, N-Cyclohexyl-3-(3-((4-(2-ethoxybenzoyl)-1-oxa-4,9-diazaspiro[5.5]undecan-9-yl)methyl)phenethoxy)-N-(2-(2-(5-hydroxy-3-oxo-3,4-dihydro-2H-benzo[b][1,4]oxazin-8-yl)ethylamino)ethyl)propanamide], for which the inhibition at 1 µM in experiment [1] was found to be 96%. The percent of formoterol maximum response at 1 µM in experiment [2] was found to be 107%.

Source of the values: patent US8476265B2, “Compounds-801” (AstraZeneca AB, priority 2010, dated 2013).
